From US8389011B2, “Pharmaceutical compositions of cholesteryl ester transfer protein inhibitors” (Bend Research, Inc., priority 2000, dated 2013)

Assay: In vitro dissolution test, microcentrifuge method, in phosphate buffered saline (PBS) pH 6.5
Assay type: physicochemical
Experimental: The compositions comprising the CETP inhibitor and concentration-enhancing polymer provide enhanced concentration of the dissolved CETP inhibitor in in vitro dissolution tests. […] An appropriate PBS solution is an aqueous solution comprising 20 mM sodium phosphate (Na2HPO4), 47 mM potassium phosphate (KH2PO4), 87 mM NaCl, and 0.2 mM KCl, adjusted to pH 6.5 with NaOH. An appropriate MFD solution is the same PBS solution wherein additionally is present 7.3 mM sodium taurocholic acid and 1.4 mM of 1-palmitoyl-2-oleyl-sn-glycero-3-phosphocholine. In particular, a composition of the present invention can be dissolution-tested by adding it to MFD or PBS solution and agitating to promote dissolution.
Indeed, for some extremely insoluble CETP inhibitors, in order to identify the MDC achieved it may be necessary to use an amount of test composition such that if all of the CETP inhibitor dissolved, the CETP inhibitor concentration would be 10,000-fold or even more, that of the equilibrium concentration of the CETP inhibitor.
The MDC is taken to be the maximum value of dissolved CETP inhibitor measured over the duration of the test.
Filtration can be conducted using a 13 mm, 0.45 μm polyvinylidine difluoride syringe filter sold by Scientific Resources under the trademark TITAN®. Centrifugation is typically carried out in a polypropylene microcentrifuge tube by centrifuging at 13,000 G for 60 seconds. Other similar filtration or centrifugation methods can be employed and useful results obtained.
The spray-dried dispersions of Examples 6 and 7 were evaluated in an in vitro dissolution test using a microcentrifuge method. In this test, the spray-dried dispersion was added to a microcentrifuge tube for a Drug 2 dose of about 1000 μg/mL (7.2 mg for Example 6, 18 mg for Example 7). The tube was placed in a 37° C. sonicating bath, and 1.8 mL phosphate buffered saline (PBS) at pH 6.5 and 290 mOsm/kg was added. The samples were quickly mixed using a vortex mixer for about 60 seconds. The samples were centrifuged at 13,000 G at 37° C. for 1 minute. The resulting supernatant solution was then sampled and diluted 1:6 (by volume) with methanol and then analyzed by high-performance liquid chromatography (HPLC). The contents of the tubes were mixed on the vortex mixer and allowed to stand undisturbed at 37° C. until the next sample was taken. Samples were collected at 4, 10, 20, 40, 90, and 1200 minutes.
For Control 2, an in vitro dissolution test was performed using the procedures described above except that 1.8 mg of crystalline Drug 2 was used.
In this method, 7.2 mg of each spray-dried dispersion was added to a 2-mL microcentrifuge tube. The tube was placed in a 37° C. sonicating bath, and 1.8 mL of a phosphate-buffered saline (PBS) solution at pH 6.5 and 290 mOsm/kg was added, resulting in a TCmax of 400 μg/mL. The samples were quickly mixed using a combination of vortex mixer and sonication for about 90 seconds. The samples were centrifuged at 13,000 G at 37° C. for 1 minute. The resulting supernatant solution was then sampled and diluted 1:6 (by volume) with methanol and then analyzed by HPLC. The tubes were then mixed on the vortex mixer and allowed to stand undisturbed at 37° C. until the next sample. Samples were collected at 4, 10, 20, 40, 90 and 1200 minutes.
For Control 5, an in vitro dissolution test was performed using the procedure described above, except that 0.72 mg of non-crystalline Drug 3 was placed in a microcentrifuge tube and mixed with 1.8 mL of PBS.
In this method, 15 mg of each SDD was added to a 2-mL microcentrifuge tube. The tube was placed in a 37° C. sonicating bath, and 1.5 mL of a phosphate-buffered saline (PBS) solution at pH 6.5 and 290 mOsm/kg) was added, resulting in a TCmax of 1000 μg/mL. The samples were quickly mixed using a combination of vortex mixer and sonication for about 90 seconds.

[1] = Table 13, Drug 3, PBS, TCmax 400 μg/mL
[2] = PBS pH 6.5, 37° C., TCmax 1000 μg/mL, time 0 min
[3] = PBS pH 6.5, 37° C., TCmax 1000 μg/mL, time 4 min
[4] = PBS pH 6.5, 37° C., TCmax 1000 μg/mL, time 10 min
[5] = PBS pH 6.5, 37° C., TCmax 1000 μg/mL, time 20 min
[6] = PBS pH 6.5, 37° C., TCmax 1000 μg/mL, time 40 min
[7] = PBS pH 6.5, 37° C., TCmax 1000 μg/mL, time 90 min
[8] = Table 16, Drugs 4-9, PBS pH 6.5, 37° C., TCmax 1000 μg/mL

Compound	AUC [2] [min-μg/mL]	Concentration [2] [ng/mL]	AUC [3] [min-μg/mL]	Concentration [3] [ng/mL]	AUC [4] [min-μg/mL]	Concentration [4] [ng/mL]	AUC [5] [min-μg/mL]	Concentration [5] [ng/mL]	AUC [6] [min-μg/mL]	Concentration [6] [ng/mL]	AUC [7] [min-μg/mL]	Concentration [7] [ng/mL]	AUC90 [8] [min-μg/mL]	Cmax, 90 [8] [ng/mL]	other results
CCCOC(=O)N1c2ccc(C(F)(F)F)cc2[C@@H](N(Cc2cc(C(F)(F)F)cc(C(F)(F)F)c2)C(=O)OC)C[C@H]1CC [Control 5, [2R,4S]4-[(3,5-bis-trifluoromethyl-benzyl)-methoxycarbonyl-amino]-2-ethyl-6-trifluoromethyl-3,4-dihydro-2H-quinoline-1-carboxylic acid propyl ester]	–	–	–	–	–	–	–	–	–	–	–	–	–	–	Concentration (Table 12, Drug 3, PBS pH 6.5, 37° C., 0 min, TCmax 400 μg/mL): 0 ng/mL; Concentration (Table 12, Drug 3, PBS pH 6.5, 37° C., 4 min, TCmax 400 μg/mL): <100 ng/mL; Concentration (Table 12, Drug 3, PBS pH 6.5, 37° C., 10 min, TCmax 400 μg/mL): <100 ng/mL; Concentration (Table 12, Drug 3, PBS pH 6.5, 37° C., 20 min, TCmax 400 μg/mL): <100 ng/mL; Concentration (Table 12, Drug 3, PBS pH 6.5, 37° C., 40 min, TCmax 400 μg/mL): <100 ng/mL; Concentration (Table 12, Drug 3, PBS pH 6.5, 37° C., 90 min, TCmax 400 μg/mL): <100 ng/mL; AUC (Table 12, Drug 3, PBS pH 6.5, 37° C., to 0 min, TCmax 400 μg/mL): 0 min-μg/mL; AUC (Table 12, Drug 3, PBS pH 6.5, 37° C., to 4 min, TCmax 400 μg/mL): <0.4 min-μg/mL; AUC (Table 12, Drug 3, PBS pH 6.5, 37° C., to 10 min, TCmax 400 μg/mL): <1.0 min-μg/mL; AUC (Table 12, Drug 3, PBS pH 6.5, 37° C., to 20 min, TCmax 400 μg/mL): <2.0 min-μg/mL; AUC (Table 12, Drug 3, PBS pH 6.5, 37° C., to 40 min, TCmax 400 μg/mL): <4.0 min-μg/mL; AUC (Table 12, Drug 3, PBS pH 6.5, 37° C., to 90 min, TCmax 400 μg/mL): <9.0 min-μg/mL; AUC90 [1]: <9.0 min-μg/mL; Cmax, 90 [1]: <100 ng/mL
CCOC(=O)N1c2cc(OC)c(OC)cc2[C@@H](N(Cc2cc(C(F)(F)F)cc(C(F)(F)F)c2)C(=O)OC)C[C@H]1C [Control 6, [2R,4S]4-[(3,5-bis-trifluoromethyl-benzyl)-methoxycarbonyl-amino]-6,7-dimethoxy-2-methyl-3,4-dihydro-2H-quinoline-1-carboxylic acid ethyl ester]	0	0	<4	<1000	<10	<1000	<20	<1000	<40	<1000	<90	<1000	<90	<1000	–
CCOC(=O)N1c2cc3c(cc2[C@@H](N(Cc2cc(C(F)(F)F)cc(C(F)(F)F)c2)C(=O)OC)C[C@H]1C)CCC3 [Control 8, [2R,4S]4-[(3,5-bis-trifluoromethyl-benzyl)-methoxycarbonyl-amino]-2-methyl-2,3,4,6,7,8-hexahydro-cyclopenta[g]quinoline-1-carboxylic acid ethyl ester]	–	–	<4	<1000	<10	<1000	<20	<1000	<40	<1000	<90	<1000	<90	<1000	–
CC1(C)Cc2nc(C3CCCC3)c([C@@H](F)c3ccc(C(F)(F)F)cc3)c(-c3ccc(F)cc3)c2[C@@H](O)C1 [Control 11, [3S,5S]2-cyclopentyl-4-(4-fluoro-phenyl)-3-[fluoro-(4-trifluoromethyl-phenyl)-methyl]-7,7-dimethyl-5,6,7,8-tetrahydro-quinolin-5-ol]	0	0	<4	<1000	<10	<1000	<20	<1000	<40	<1000	<90	<1000	<90	<1000	–

Further lines, with some results ahead:

AUC [2] [min-μg/mL]	Concentration [2] [ng/mL]	AUC [3] [min-μg/mL]	Concentration [3] [ng/mL]	AUC [4] [min-μg/mL]	Concentration [4] [ng/mL]	AUC [5] [min-μg/mL]	Concentration [5] [ng/mL]	AUC [6] [min-μg/mL]	Concentration [6] [ng/mL]	AUC [7] [min-μg/mL]	Concentration [7] [ng/mL]	AUC90 [8] [min-μg/mL]	Cmax, 90 [8] [ng/mL]	Compound	other results
0	0	<4	<1000	<10	<1000	<20	<1000	<40	<1000	<90	<1000	<90	<1000	CCOC(=O)N1c2cc(CC)c(CC)cc2[C@@H](N(Cc2cc(C(F)(F)F)cc(C(F)(F)F)c2)C(=O)OC)C[C@H]1C [Control 7, [2R,4S]4-[(3,5-bis-trifluoromethyl-benzyl)-methoxycarbonyl-amino]-6,7-diethyl-2-methyl-3,4-dihydro-2H-quinoline-1-carboxylic acid ethyl ester]	–
0	0	<4	<1000	<10	<1000	<20	<1000	<40	<1000	<90	<1000	<90	<1000	COC(=O)N(Cc1cc(C(F)(F)F)cc(C(F)(F)F)c1)[C@H]1C[C@@H](C2CC2)N(C(=O)OC(C)C)c2ccc(C(F)(F)F)cc21 [Control 10, [2S,4S]4-[(3,5-bis-trifluoromethyl-benzyl)-methoxycarbonyl-amino]-2-cyclopropyl-6-trifluoromethyl-3,4-dihydro-2H-quinoline-1-carboxylic acid isopropyl ester]	–
